Measurements as given in paper PMC12356538, “Targeting the SARS-CoV‑2 RNA Translation Initiation Element SL1 by Molecules of Low Molecular Weight” (Journal of the American Chemical Society, 2025).
Where two headings read alike, the source gives them in different places.

Experiments:
[1] = tested on: SARS-CoV-2 SL1 RNA (SL1 wt); assay type: binding; settings: for wLOGSY factor / T2 reduction [%] / CSP [Hz]: 10 μM SL1 wt, 200 μM ligand; for wLOGSY factor / T2 reduction [%]: pH 6.2; for T2 reduction [%]: CPMG 100 vs 5 ms; for Rank: FBS ranking from summed ranks of CSP, wLOGSY and T2 results; for Rank / FBS binding to SL1, in words: SL1 wt; for CSP [Hz]: ligand 1H CSP, [RNA]:[ligand] 1:20, pH 6.2; for FBS binding to SL1, in words: ligand-detected NMR
[2] = tested on: SL1 Δbulge RNA; assay type: binding, SARS-CoV-2
[3] = tested on: SL1 RNA; experiment: RNA-detected NMR binding site mapping (2D-1H,1H-TOCSY and 1D-1H); design: species or system SARS-CoV-2; settings: for 1H,1H CSPs [ppm] C15H5-H6 / 1H,1H CSPs [ppm] C16H5-H6 / 1H,1H CSPs [ppm] C19H5-H6 / 1H,1H CSPs [ppm] C20H5-H6 / 1H,1H CSPs [ppm] C21H5-H6 / 1H,1H CSPs [ppm] C28H5-H6 / 1H,1H CSPs [ppm] C32H5-H6 / 1H,1H CSPs [ppm] C33H5-H6 / 1H,1H CSPs [ppm] C34H5-H6 / 1H,1H CSPs [ppm] U9H5-H6 / 1H,1H CSPs [ppm] U10H5-H6 / 1H,1H CSPs [ppm] U11H5-H6 / 1H,1H CSPs [ppm] U13H5-H6 / 1H,1H CSPs [ppm] U17H5-H6 / 1H,1H CSPs [ppm] U18H5-H6 / 1H,1H CSPs [ppm] U25H5-H6: 2D TOCSY, RNA 150 μM, compound 1 mM, 298 K; for 1H CSPs [ppm] A12H2 / 1H CSPs [ppm] A29H2: RNA-detected 1D-1H
[4] = tested on: SL1 (wt)-Nanoluciferase mRNA; assay type: biochemical, SARS-CoV-2
[5] = target: SL1 wt RNA; experiment: NMR-based KD estimation, ligand-detected 1D-1H titration; assay type: binding, SARS-CoV-2
[6] = tested on: SL1 Δbulge-Nanoluciferase mRNA; assay type: biochemical, SARS-CoV-2
[7] = tested on: β-Globin-Nanoluciferase mRNA; experiment: Cell-free translation assay in rabbit reticulocyte lysate, Nanoluciferase readout; assay type: biochemical; settings: 0.2 μM mRNA, 2 μM compound
[8] = Suppl. Table 7, ligand constant at 100, SL1 wt RNA concentration 0-200, read-out: KDest
[9] = ligand 100 μM, SL1 RNA 0 to 200 or 250 μM, 298 K, 600 MHz, pH 6.2, read-out: KD est

Structure (SMILES) | wLOGSY factor [1] | T2 reduction [%] [1] [%] | Rank [1] | CSP [Hz] [1] [Hz] | 1H,1H CSPs [ppm] C16H5-H6 [3] [ppm] | 1H,1H CSPs [ppm] C19H5-H6 [3] [ppm] | 1H,1H CSPs [ppm] C20H5-H6 [3] [ppm] | 1H,1H CSPs [ppm] C21H5-H6 [3] [ppm] | 1H,1H CSPs [ppm] C28H5-H6 [3] [ppm] | 1H,1H CSPs [ppm] C33H5-H6 [3] [ppm] | 1H,1H CSPs [ppm] C34H5-H6 [3] [ppm] | 1H,1H CSPs [ppm] U9H5-H6 [3] [ppm] | 1H,1H CSPs [ppm] U10H5-H6 [3] [ppm] | 1H,1H CSPs [ppm] U11H5-H6 [3] [ppm] | 1H,1H CSPs [ppm] U13H5-H6 [3] [ppm] | 1H,1H CSPs [ppm] U17H5-H6 [3] [ppm] | 1H,1H CSPs [ppm] U18H5-H6 [3] [ppm] | 1H,1H CSPs [ppm] U25H5-H6 [3] [ppm] | 1H CSPs [ppm] A12H2 [3] [ppm] | effect on translation of SL1 wt mRNA, in words [4] | other results
CNC(=O)Nc1nc2c(OC)cc(OC)cc2s1 [A.11] | 1.51 | 93.00 | 19 | 4.50 | 0.0020 | 0.0036 | 0.0045 | 0.0061 | 0.0130 | 0.0010 | 0.0025 | 0.0040 | 0.0072 | 0.0311 | 0.0216 | 0.0010 | 0.0043 | 0.0045 | 0.0400 | no inhibition | FBS result (CSP, wLOGSY, T2 reduction) in words [2]: no effects; 1H,1H CSPs [ppm] C15H5-H6 [3]: 0.0010 ppm; 1H,1H CSPs [ppm] C32H5-H6 [3]: 0.0063 ppm; 1H CSPs [ppm] A29H2 [3]: 0.0040 ppm
COc1ccc2nc(NC(=O)CN3CCC[C@H](N)C3)sc2c1 [A.36] | 0.82 | 100.00 | 2 | 30.18 | 0.0076 | 0.0036 | 0.0029 | 0.0010 | 0.0359 | 0.0057 | 0.0079 | 0.0100 | 0.0089 | 0.0063 | 0.0308 | 0.0045 | 0.0039 | 0.0120 | 0.0727 | nonspecific effects | FBS binding to SL1, in words [1]: positive effect on SL1 binding; FBS result (CSP, wLOGSY, T2 reduction) in words [2]: no effects; Kd [5, 8]: 218 µM; Kd [5, 9]: 218 ± 90 µM; binding site / selectivity for the bulge from CSP and LB mapping, in words [3]: weaker binding characteristics; 1H,1H CSPs [ppm] C15H5-H6 [3]: 0.0010 ppm; 1H,1H CSPs [ppm] C32H5-H6 [3]: 0.0186 ppm; effect on translation of SL1 Δbulge mRNA, in words [6]: increased translation efficiency; effect on translation of β-globin mRNA, in words [7]: increased translation efficiency
CNC(=N)Nc1nc2ccc(OC)cc2s1 [A.4] | 1.21 | 77.83 | 20 | 16.14 | 0.0103 | 0.0293 | 0.0526 | 0.0441 | 0.1355 | 0.0050 | 0.0072 | 0.0130 | 0.0146 | 0.0030 | 0.0999 | 0.0288 | 0.0191 | 0.0099 | 0.1560 | inhibitory effect | FBS binding to SL1, in words [1]: strongest FBS effects; CSP [Hz] [2]: 8.19 Hz; Rank [2]: 1; T2 reduction [%] [2]: 90.18%; wLOGSY factor [2]: 0.69; Kd ([5]; Suppl. Table 7, ligand constant at 100, SL1 wt RNA concentration 0-250, read-out: KDest): 102 µM; Kd [5, 9]: 102 ± 8 µM; binding site / selectivity for the bulge from CSP and LB mapping, in words [3]: bound the bulge less selectively; 1H CSPs [ppm] A29H2 [3]: 0.0670 ppm; effect on translation of SL1 Δbulge mRNA, in words [6]: inhibitory effect; effect on translation of β-globin mRNA, in words [7]: boost
COc1ccc(-c2nnc(NC(=O)CN(C)C)s2)cc1OC [A.31] | 1.71 | 100.00 | 1 | 24.42 | 0.0073 | 0.0042 | 0.0021 | 0.0010 | 0.0228 | 0.0067 | 0.0204 | 0.0104 | 0.0112 | 0.0256 | 0.0206 | 0.0067 | 0.0021 | 0.0122 | 0.0630 | nonspecific effects | FBS result (CSP, wLOGSY, T2 reduction) in words [2]: no effects; Kd [5, 8]: 146 µM; Kd [5, 9]: 146 ± 13 µM; binding site / selectivity for the bulge from CSP and LB mapping, in words [3]: weaker binding characteristics; 1H,1H CSPs [ppm] C15H5-H6 [3]: 0.0032 ppm; 1H,1H CSPs [ppm] C32H5-H6 [3]: 0.0130 ppm; 1H CSPs [ppm] A29H2 [3]: 0.0000 ppm
COc1cc(OC)c2nc(NC(=O)CN3CCC[C@H](N)C3)sc2c1 [A.54] | 0.00 | 100.00 | 4 | 34.62 | – | – | – | – | – | – | – | – | – | – | – | – | – | – | – | – | CSP [Hz] [2]: 3.60 Hz; Rank [2]: 5; T2 reduction [%] [2]: 88.68%; wLOGSY factor [2]: 0.00; Kd [5, 8]: 109 µM
